Measured values: paper PMC4428071, “Structural basis for epitope masking and strain specificity of a conserved epitope in an intrinsically disordered malaria vaccine candidate” (Scientific Reports, 2015)

Experiments:
mAb 6D8 = assay: SPR binding of synthetic MSP2 peptides to immobilized (captured) mAb 6D8; design: species or system mouse; conditions: for Kd: Biacore T200, mAb 6D8 captured with Mouse Antibody Capture kit, peptides in 20 mM HEPES, 150 mM NaCl, 3 mM EDTA, 0.05 % Tween20, pH 7.4, from concentration dependence of steady-state responses, ± standard deviation of three replicate experiments; for Binding to immobilized mAb 6D8 (in words): at up to 1 μM peptide concentration
Protocol: To explore the structural basis of epitope masking, it was necessary to first define the minimal epitope of mAb 6D8. […]
(§1) mM scale) using a three-fold equivalent of FMOC-protected amino acid, HCTU and DIPEA in DMF per cycle. Each amino acid coupling was carried out for 30 min at room temperature with continuous shaking. Chain deprotection was carried out in 50% piperidine in DMF for 2 min. Each step in the cycle was terminated with an extensive DMF wash. Peptides were N-terminally acetylated after the last coupling and deprotected, using a three-fold equivalent of acetic anhydride and Dipea in DMF.
The fully assembled peptides were dried under vacuum and cleaved for 3 h in a mixture of TFA:TIPS:water (95:2.5:2.5 v/v). The cleaved material was precipitated in cold diethyl ether overnight at -20 °C. T he insoluble peptide material was spun down at 4,000 rpm for 30 min at 4 °C and the pellet washed twice in cold diethyl ether prior to removal of the organic phase.
The crude peptide mixture was resuspended in 50% acetonitrile/0.1% TFA, filtered and freeze-dried prior to HPLC purification.
2 mg/mL for HPLC purification. […]
linear gradient of 5 to 40% of solvent B (90% acetonitrile / 9.9% water / 0.1% TFA) against solvent A (0.1% TFA in water) over 40 min. […]
mass spectrometry (LC-MS).
Affinity measurements. […]
Where low peptide solubility precluded ITC measurements, affinity was estimated by surface plasmon resonance (SPR) (Biacore T200, GE Healthcare) using a Mouse Antibody Capture kit (GE Healthcare). Synthetic peptides were resuspended in running buffer (20 mM HEPES, 150 mM NaCl, 3 mM EDTA, 0.05 % Tween20, pH 7.4) and injected over the 6D8-captured

[1] = Aggregation tendency of peptides on resuspension for HPLC purification; type: physicochemical; conditions: crude peptide resuspended for HPLC purification; had to be resuspended in 10 mM acetic acid at 1 mg/mL
Protocol: as §1
The fully assembled peptides were dried under vacuum and cleaved for 3 h in a mixture of TFA:TIPS:water (95:2.5:2.5 v/v). The cleaved material was precipitated in cold diethyl ether overnight at -20 °C. […]
MSP2 peptides were purified on a reverse-phase C18 column (Zorbax, 10 x 300 mm) using a linear gradient of 5 to 40% of solvent B (90% acetonitrile / 9.9% water / 0.1% TFA) against solvent A (0.1% TFA in water) over 40 min. The purity of MSP2 peptides was assessed by mass spectrometry (LC-MS).
Affinity measurements. Binding affinity constants of 6D8 antibodies (IgG and scFv) for synthetic peptides and recombinant allelic forms of MSP2 were determined by isothermal titration calorimetry (Microcal ITC-200, GE Healthcare) using either murine mAb 6D8 produced and affinity-purified by the Walter and Eliza Hall Institute antibody facility3 or 6D8 scFv. […]

Substance: Ac-AYNMSIRR-NH2 [MSP2_15-22]
- Kd (mAb 6D8): 87 ± 21 nM
- Binding to immobilized mAb 6D8 (in words) (mAb 6D8): detectable binding

Substance: Ac-AYNMSIRRS-NH2 [MSP2_15-23]
- Kd (mAb 6D8): 34 ± 12 nM

Substance: Ac-FINNAYNMSIRRS-NH2 [MSP2_11-23]
- Kd (mAb 6D8): 6 ± 3 nM

Substance: Ac-NAYNMSIRR-NH2 [MSP2_14-22]
- Kd (mAb 6D8): 6 ± 2 nM

Substance: INNAYNMS [MSP2_12-19, N-acetylated, C-amidated synthetic peptide, residues 12-19 of MSP2]
- Tendency to aggregate [1]: high tendency

Substance: NAYNMSIR [MSP2_14-21, N-acetylated, C-amidated synthetic peptide, residues 14-21 of MSP2]
- Binding to immobilized mAb 6D8 (in words) (mAb 6D8): abolishes binding

Substance: NNAYNMSI [MSP2_13-20, N-acetylated, C-amidated synthetic peptide, residues 13-20 of MSP2]
- Tendency to aggregate [1]: high tendency

Substance: YNMSIRRS [MSP2_16-23, N-acetylated, C-amidated synthetic peptide, residues 16-23 of MSP2]
- Binding to immobilized mAb 6D8 (in words) (mAb 6D8): abolishes binding
